Results from patent US10226453B2, “3-(1H-indol-2-yl)-1H-pyrazolo[4,3-B]pyridines and therapeutic uses thereof” (Samumed, LLC, priority 2015, dated 2019).

Assays:
Type in all cases: cell-based
[1] = test system: Wnt activity (Sp5-Luc reporter, SW480 colon carcinoma cells); test: Wnt activity screening assay: Sp5-Luc reporter gene in SW480 colon carcinoma cells; conditions: Homo sapiens, overnight incubation, 10-point curve from 10 μM
Description: The screening assay for Wnt activity is described as follows. Reporter cell lines can be generated by stably transducing cancer cell lines (e.g., colon cancer) or primary cells (e.g., IEC-6 intestinal cells) with a lentiviral construct that includes a Wnt-responsive promoter driving expression of the firefly luciferase gene.
SW480 colon carcinoma cells were transduced with a lentiviral vector expressing luciferase with a human Sp5 promoter consisting of a sequence of eight TCF/LEF binding sites. SW480 cells stably expressing the Sp5-Luc reporter gene and a hygromycin resistance gene were selected by treatment with 150 μg/mL of hygromycin for 7 days. These stably transduced SW480 cells were expanded in cell culture and used for all further screening activities. Each compound was dissolved in DMSO as a 10 mM stock and used to prepare compound source plates. Serial dilution (1:3, 10-point dose-response curves starting from 10 μM) and compound transfer was performed using the ECHO 550 (Labcyte, Sunnyvale, Calif.) into 384-well white solid bottom assay plates (Greiner Bio-One) with appropriate DMSO backfill for a final DMSO concentration of 0.1%. For Sp5-Luc reporter gene assays, the cells were plated at 4,000 cells/well in 384-well plates with medium containing 1% fetal bovine serum and incubated overnight at 37° C. and 5% CO2. Following incubation, 20 μl of BrightGlo luminescence reagent (Promega) was added to each well of the 384-well assay plates. The plates were placed on an orbital shaker for 2 min and then luminescence was quantified using the Envision (Perkin Elmer) plate reader. Readings were normalized to DMSO only treated cells, and normalized activities were utilized for EC50 calculations using the dose-response log (inhibitor) vs. response-variable slope (four parameters) nonlinear regression feature available in GraphPad Prism 5.0 (or Dotmatics). For EC50 of >10 μM, the percent inhibition at 10 μM is provided.

[2] = test system: SW480 colon cancer cells; test: Cell viability assay (CellTiter-Blue), SW480 colon cancer cells; conditions: Homo sapiens, 96 h, four days, CellTiter-Blue
Procedure: Representative compounds were screened using the following assay procedure to assess the effect on cell viability as described below.
Each compound was dissolved in DMSO as a 10 mM stock and used to prepare compound source plates. Serial dilution (1:3, 8-point dose-response curves from 10 μM to 0.0045 μM) and compound transfer was performed using the ECHO 550 (Labcyte, Sunnyvale, Calif.) into 96-well clear bottom, black-walled plates (Corning—Costar).
Approximately 2×10^3 SW480 colon cancer cells were seeded into each well and allowed to incubate in the presence or absence of compound for four days at 37° C./5% CO2. Eight replicates of DMSO-treated cells served as controls and cells treated with compound were performed in duplicate.
After incubation, 20 μL of CellTiter-Blue (Promega) was added to each well allowed to incubate for approximately 3 hours. This reagent was a buffered solution which contains resazurin, metabolically active cells were able to reduce rezarurin (blue) into resorufin (pink) which was highly fluorescent. This measured fluorescence was used as a readout for cell viability.
After incubation, the plates were read at Ex 560 nm Em 590 nm (Cytation 3, BioTek). Dose-response curves were generated and EC50 concentration values were calculated using non-linear regression curve fit in the GraphPad Prism (San Diego, Calif.) or Dotmatics' Studies Software (Bishops Stortford, UK). For EC50 of >10 μM, the percent inhibition at 10 μM is provided.

[3] = test system: primary human fibroblasts derived from IPF patients (LL29 cells) treated with TGF-β1; test: Inhibition of the fibrotic process: αSMA staining in TGF-β1 treated primary human fibroblasts from IPF patients (LL29 cells); conditions: Fibroblast, 96 h, TGF-β1 20 ng/mL, 4 days, % αSMA positive cells
Description: Representative compounds were screened using primary human fibroblasts (derived from IPF patients) treated with TGF-β1 to determine their ability to inhibit the fibrotic process.
Primary human fibroblasts derived from IPF patients (LL29 cells) [^1Xiaoqiu Liu, et. al., “Fibrotic Lung Fibroblasts Show Blunted Inhibition by cAMP Due to Deficient cAMP Response Element-Binding Protein Phosphorylation”, Journal of Pharmacology and Experimental Therapeutics (2005), 315(2), 678-687; ^2Watts, K. L., et. al., “RhoA signaling modulates cyclin D1 expression in human lung fibroblasts; implications for idiopathic pulmonary fibrosis”, Respiratory Research (2006), 7(1), 88] were obtained from American Type Culture Collection (ATCC) and expanded in F12 medium supplemented with 15% Fetal Bovine Serum and Penicillin/Streptomycin.
Each compound was dissolved in DMSO as a 10 mM stock and used to prepare compound source plates. Serial dilution (1:2, 11-point dose-response curves from 10 μM to 1.87 nM) and compound transfer was performed using the ECHO 550 (Labcyte, Sunnyvale, Calif.) into 384-well clear bottom assay plates (Greiner Bio-One) with appropriate DMSO backfill for a final DMSO concentration of 0.1%. LL29 cells are plated at 1,500 cells/well in 80 μL/well F12 medium supplemented with 1% Fetal Bovine Serum. One hour after addition of the cells, TGF-β1 (Peprotech; 20 ng/mL) was added to the plates to induce fibrosis (ref. 1 and 2 above). Wells treated with TGF-β1 and containing DMSO were used as controls. Cells were incubated at 37° C. and 5% CO2 for 4 days. Following incubation for 4 days, SYTOX green nucleic acid stain (Life Technologies [Thermo Fisher Scientific]) was added to the wells at a final concentration of 1 μM and incubated at room temperature for 30 min. Cells were then fixed using 4% formaldehyde (Electron Microscopy Sciences), washed 3 times with PBS followed by blocking and permeabilization using 3% Bovine Serum Albumin (BSA; Sigma) and 0.3% Triton X-100 (Sigma) in PBS. Cells were then stained with antibody specific to α-smooth muscle actin (αSMA; Abcam) (ref. 1 and 2 above) in 3% Bovine Serum Albumin (BSA; Sigma) and 0.3% Triton X-100 (Sigma) in PBS, and incubated overnight at 4° C. Cells were then washed 3 times with PBS, followed by incubation with Alexa Flor-647 conjugated secondary antibody (Life Technologies [Thermo Fisher Scientific]) and DAPI at room temperature for 1 hour. Cells were then washed 3 times with PBS and plates were sealed for imaging. αSMA staining was imaged by excitation at 630 nm and emission at 665 nm and quantified using the Compartmental Analysis program on the CellInsight CX5 (Thermo Scientific). Dead or apoptotic cells were excluded from analysis based on positive SYTOX green staining. % of total cells positive for αSMA were counted in each well and normalized to the average of 11 wells treated with TGF-β1 on the same plate using Dotmatics' Studies Software. The normalized averages (fold change over untreated) of 3 replicate wells for each compound concentration were used to create dose-responses curves and EC50 values were calculated using non-linear regression curve fit in the Dotmatics' Studies Software. For EC50 of >10 μM, the percent inhibition at 10 μM is provided.

[4] = test system: IL-6 (THP-1 cells); test: IL-6 inhibition in LPS-stimulated THP-1 human monocyte cells (HTRF); conditions: LPS 500 ng/mL, 22 hours, IL6 HTRF
Procedure: Human monocyte cell line (THP-1 cells; Catalog # TIB-202, ATCC, Manassas, Va.) were cultured in Roswell Park Memorial Institute (RPMI) 1640 Medium (Catalog #21870-100, Buffalo, N.Y.) with 1% L-glutamine, 1% HEPES, 1% Sodium Pyruvate, 2% Sodium Bicarbonate supplemented with 100 units/mL penicillin, 50 μg/mL streptomycin, 2-mercaptoethanol (0.05 mM) [basal medium] and 10% fetal bovine serum (Catalog #16140089, Life Technologies, Carlsbad, Calif.) at 37° C. and 5% CO2.
THP-1 cells were cultured in basal media with 1% FBS for 24 hours before the start of the assay. Each compound was dissolved in DMSO as a 10 mM stock and used to prepare compound source plates. Serial dilution (1:3, 10-point dose-response curves starting from 10 μM) and compound transfer was performed using the ECHO 550 (Labcyte, Sunnyvale, Calif.) into 384-well white low volume assay plates (Greiner Bio-One) with appropriate DMSO backfill for a final DMSO concentration of 0.1%. THP-1 cells were plated at 5000 cells/well in the 384-well plates and incubated at 37° C. for 2 h. 500 ng/mL of LPS was added after 2 hours and cells were incubated for another 22 hours at 37° C. Plates were spun in a centrifuge for 1 minute at […] and a mixture of anti-IL6 XL665, and anti-IL6 Cryptate diluted in reconstitution buffer (Cisbio Inc.) was added to each well. Following incubation for 3 hrs at room temperature, Homogeneous Time-Resolved Fluorescence (HTRF) was measured using the Envision (Perkin Elmer) at 665 nm and […]. The ratio of fluorescence at 665 nm to 620 nm was used as a readout for IL6 quantification. All samples were processed in duplicate. Readings were normalized to DMSO treated cells and normalized activities were utilized for EC50 calculations using the dose-response log (inhibitor) vs. response-variable slope (four parameters) nonlinear regression feature available in GraphPad Prism 5.0 (or Dotmatics). For EC50 of >10 μM, the percent inhibition at 10 μM is provided.

Structure (SMILES) | EC50 [1] | EC50 [2] | EC50 [4] | EC50 [3]
CC(C)Nc1cncc(-c2ccc3[nH]nc(-c4cc5ncccc5[nH]4)c3n2)c1 [Compound 516, 5-(3-(1H-Pyrrolo[3,2-b]pyridin-2-yl)-1H-pyrazolo[4,3-b]pyridin-5-yl)-N-isopropylpyridin-3-amine] | 0.061 µM | 0.145 µM | 0.037 µM | 1.97 µM
CCCCC(=O)Nc1cncc(-c2ccc3[nH]nc(-c4cc5ncccc5[nH]4)c3n2)c1 [Compound 523, N-(5-(3-(1H-Pyrrolo[3,2-b]pyridin-2-yl)-1H-pyrazolo[4,3-b]pyridin-5-yl)pyridin-3-yl)pentanamide] | 0.55 µM | 0.943 µM | 0.02 µM | 0.697 µM
Cn1cc(-c2ccc3[nH]nc(-c4cc5c(-c6cccc(F)c6)cccc5[nH]4)c3n2)cn1 [Compound 536, 3-(4-(3-Fluorophenyl)-1H-indol-2-yl)-5-(1-methyl-1H-pyrazol-4-yl)-1H-pyrazolo[4,3-b]pyridine] | 0.338 µM | 2.78 µM | 0.023 µM | 0.23 µM
CN(C)CCOc1cncc(-c2ccc3[nH]nc(-c4cc5c(-c6cccnc6)cccc5[nH]4)c3n2)c1 [Compound 591, N,N-Dimethyl-2-((5-(3-(4-(pyridin-3-yl)-1H-indol-2-yl)-1H-pyrazolo[4,3-b]pyridin-5-yl)pyridin-3-yl)oxy)ethan-1-amine] | 4.28 µM | 1.09 µM | 0.017 µM | 1.16 µM

Further compounds by falling EC50 [1], results first:

EC50 [1] | EC50 [2] | EC50 [4] | Structure (SMILES) | EC50 [3]
2.95 µM | 5.18 µM | 2.25 µM | CS(=O)(=O)NCc1cc(F)cc(-c2cccc3[nH]c(-c4n[nH]c5ccc(C6CCNCC6)nc45)cc23)c1 [Compound 789, N-(3-Fluoro-5-(2-(5-(piperidin-4-yl)-1H-pyrazolo[4,3-b]pyridin-3-yl)-1H-indol-4-yl)benzyl)methanesulfonamide] | 9.63 µM
0.64 µM | 0.728 µM | 0.017 µM | Cc1ncc(-c2ccc3[nH]nc(-c4cc5ccccc5[nH]4)c3n2)n1C [Compound 681, 5-(1,2-Dimethyl-1H-imidazol-5-yl)-3-(1H-indol-2-yl)-1H-pyrazolo[4,3-b] pyridine] | 0.279 µM
0.433 µM | 1.19 µM | 0.473 µM | CS(=O)(=O)NCc1cc(F)cc(-c2cccc3[nH]c(-c4n[nH]c5ccc(-c6cncc(OCc7ccccc7)c6)nc45)cc23)c1 [Compound 802, N-(3-(2-(5-(5-(Benzyloxy)pyridin-3-yl)-1H-pyrazolo[4,3-b]pyridin-3-yl)-1H-indol-4-yl)-5-fluorobenzyl)methanesulfonamide] | 0.276 µM
